In ChEMBL document CHEMBL1126148, “Synthesis of halogenated trimetoquinol derivatives and evaluation of their beta-agonist and thromboxane A2 (TXA2) antagonist activities” (J Med Chem, 1992):

How the values were obtained:
[1] = molecular target: T1, Beta-2 adrenergic receptor (Cavia porcellus, UniProt Q8K4Z4); assay: Agonist activity at Beta-2 adrenergic receptor in guinea pig trachea after treatment with the compound
[2] = molecular target: T2, Beta-1 adrenergic receptor (Cavia porcellus, UniProt B0FL73); assay: (§1) Inhibitory activity against Beta-1 adrenergic receptor in guinea pig atria after treatment with the compound
T2 sequence (B0FL73 whole entry): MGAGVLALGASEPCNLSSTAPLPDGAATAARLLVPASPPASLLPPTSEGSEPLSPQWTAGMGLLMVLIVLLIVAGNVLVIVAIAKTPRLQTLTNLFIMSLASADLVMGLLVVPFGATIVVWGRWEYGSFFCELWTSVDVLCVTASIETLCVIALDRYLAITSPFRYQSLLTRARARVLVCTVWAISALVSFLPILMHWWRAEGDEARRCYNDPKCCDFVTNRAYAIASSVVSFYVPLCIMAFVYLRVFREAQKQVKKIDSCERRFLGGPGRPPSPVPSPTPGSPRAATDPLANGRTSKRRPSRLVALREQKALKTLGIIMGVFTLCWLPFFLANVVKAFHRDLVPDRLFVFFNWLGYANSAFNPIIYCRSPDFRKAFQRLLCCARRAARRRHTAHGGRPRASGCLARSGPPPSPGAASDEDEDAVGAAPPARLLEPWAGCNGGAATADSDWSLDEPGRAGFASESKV

[3] = molecular target: T2, Beta-1 adrenergic receptor; assay: Binding affinity against Beta-1 adrenergic receptor in guinea pig left ventricle
[4] = molecular target: T3, Thromboxane A2 receptor (Rattus norvegicus) (UniProt P34978); assay: (§2) Inhibitory activity against […]-mediated contraction of rat thoracic aorta (Thromboxane A2 tau receptor); type: functional, tissue-based
T3 sequence (whole entry): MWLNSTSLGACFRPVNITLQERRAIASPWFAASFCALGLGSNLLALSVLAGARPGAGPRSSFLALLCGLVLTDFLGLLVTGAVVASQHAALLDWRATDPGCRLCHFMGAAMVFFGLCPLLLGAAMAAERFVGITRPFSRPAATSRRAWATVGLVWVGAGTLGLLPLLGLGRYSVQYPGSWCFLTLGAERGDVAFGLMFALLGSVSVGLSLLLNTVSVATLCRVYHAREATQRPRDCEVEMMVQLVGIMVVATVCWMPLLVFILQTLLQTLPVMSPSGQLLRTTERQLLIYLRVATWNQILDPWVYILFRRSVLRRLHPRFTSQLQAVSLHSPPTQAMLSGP

[5] = molecular target: T1, Beta-2 adrenergic receptor; assay: Binding affinity against Beta-2 adrenergic receptor in guinea pig lung membranes; type: cell membranes, Membrane
[6] = molecular target: T3, Thromboxane A2 receptor (Rattus norvegicus); assay: as §2; type: tissue-based
Rattus norvegicus = species: Rattus norvegicus; assay: (§3) Potency ratio was measured as EC50 (trimetoquinol )/EC50 (drug); type: functional
Homo sapiens = species: Homo sapiens; assay: as §3; type: functional
[7] = molecular target: Beta-1 adrenergic receptor (Cavia porcellus) (UniProt B0FL73); assay: Maximum response of drug relative to the response of 10e-5 isoproterenol after treatment with the compound; type: functional
Chain of Beta-1 adrenergic receptor (Cavia porcellus) (B0FL73 1-467): as the sequence (B0FL73 whole entry) above

[8] = molecular target: Beta-1 adrenergic receptor (Cavia porcellus) (UniProt B0FL73); assay: as §1

T1 sequence (Q8K4Z4 whole entry): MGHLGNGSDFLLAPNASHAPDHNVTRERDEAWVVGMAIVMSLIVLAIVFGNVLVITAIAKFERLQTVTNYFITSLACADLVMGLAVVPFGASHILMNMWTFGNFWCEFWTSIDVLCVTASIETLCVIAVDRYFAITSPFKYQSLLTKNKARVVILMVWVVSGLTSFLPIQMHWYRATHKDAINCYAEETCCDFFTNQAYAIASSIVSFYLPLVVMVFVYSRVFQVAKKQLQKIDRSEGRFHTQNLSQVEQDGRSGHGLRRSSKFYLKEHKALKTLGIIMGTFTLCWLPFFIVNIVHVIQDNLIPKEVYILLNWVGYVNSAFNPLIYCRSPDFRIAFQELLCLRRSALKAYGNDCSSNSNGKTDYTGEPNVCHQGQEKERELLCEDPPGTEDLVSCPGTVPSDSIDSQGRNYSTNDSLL

Row | Structure (SMILES) | EC50 [1] | EC50 [2] | Ki [3] | pKB [4] | Ki [5] | pKB [6] | Potency ratio (Rattus norvegicus) | Potency ratio (Homo sapiens) | Intrinsic activity [7] | pKB [8]
1 | COc1cc(C[C@@H]2NCCc3cc(O)c(O)cc32)cc(OC)c1OC [TRETOQUINOL] | 26.3 nM | 174 nM | 87.1 nM | 5.46 | 49 nM |  |  |  |  | 
2 | COc1cc(CC2NCCc3cc(O)c(O)c(I)c32)cc(OC)c1OC (configuration not stated) | 1170 nM | 2950 nM |  |  |  | 4.84 | 0.24 | 0.09 | 0.81 | 
3 | COc1cc(CC2NCCc3c2cc(O)c(O)c3C(F)(F)F)cc(OC)c1OC (configuration not stated) |  |  |  |  |  | 3.7 | 0.00372 | 0.000525 |  | 5.32
4 | COc1cc(CC2NCCc3c(F)c(O)c(O)c(F)c32)cc(OC)c1OC (configuration not stated) | 240 nM | 501 nM |  |  |  | 3.98 | 0.00708 | 0.00277 |  | 
5 | COc1cc(C[C@H]2NCCc3cc(O)c(O)c(F)c32)cc(OC)c1OC |  |  |  | 5.63 |  |  |  |  |  | 
6 | COc1cc(CC2NCCc3c2cc(O)c(O)c3I)cc(OC)c1OC (configuration not stated) | 2240 nM | > 31600 nM |  |  |  | 4.31 | 0.07 | 0.002 | 0.39 | 
